Results taken from patent US4731451A, “N-((2-oxo-3(2H)benzothiazolyl)methyl)-2-chloroacetanilides” (Monsanto Company, priority 1980, dated 1988).

What was measured:
Type in all cases: in vivo
[1] = tested on: Eleocharis kuroguwai; experiment: Percent inhibition of rice weeds in transplanted rice (Table VI); conditions: 432 h, 18 days after treatment
Description: (§1) In Table VI, data is presented showing the effect of said compound on the major Asian rice weeds Echinochloa crusgalli (EC), Monochoria vaginalis (MV), Cyperus serotinus (CS), Eleocharis kuroguwai (EK) and Sagittaria trifolia (ST) in transplanted rice at rates within the range of 0.25-2.0 lb/A (0.28-2.24 kg/ha); observations were made 18 days after treatment.

[2] = tested on: Echinochloa crusgalli; experiment: as above; conditions: Echinochloa crus-galli, 432 h, 18 days after treatment
Description: as §1

[3] = tested on: Monochoria vaginalis; experiment: as above; conditions: Pontederia vaginalis, 432 h, 18 days after treatment
Description: as §1

[4] = tested on: Sagittaria trifolia; experiment: as above; conditions: 432 h, 18 days after treatment
Description: as §1

[5] = tested on: Cyperus serotinus; experiment: as above; conditions: 432 h, 18 days after treatment
Description: as §1

[6] = tested on: major Asian rice weeds; experiment: Selective control of weeds in transplanted rice (summary of Table VI)
Description: as §1

[7] = tested on: Rice; experiment: Percent inhibition in transplanted rice (Table VI)
Description: as §1

[8] = tested on: Wild Buckwheat; experiment: Pre-emergent herbicidal activity (Table III); further: ranges in brackets are in %
Procedure, shortened: (§2)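 Percent injury per species, converted to a fixed rating scale, is recorded roughly 2-3 weeks after seeding and treatment. The compound is mixed through the soil used to cover the seeds, and pans are held in a greenhouse and watered from below.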

[9] = tested on: Sugarbeet; experiment: Pre-emergent herbicidal activity (Table III); further: ranges in brackets are in %
Procedure, shortened: as §2

[10] = tested on: Velvetleaf; experiment: Pre-emergent herbicidal activity (Table III); further: ranges in brackets are in %
Procedure, shortened: as §2

[11] = tested on: Lambsquarters; experiment: Pre-emergent herbicidal activity (Table III); further: ranges in brackets are in %
Procedure, shortened: as §2

[12] = tested on: Panicum; experiment: Pre-emergent herbicidal activity (Table III); further: ranges in brackets are in %
Procedure, shortened: as §2

[13] = tested on: Downy Brome; experiment: Pre-emergent herbicidal activity (Table III); further: ranges in brackets are in %
Procedure, shortened: as §2

[14] = tested on: Cocklebur; experiment: Pre-emergent herbicidal activity (Table III); further: ranges in brackets are in %
Procedure, shortened: as §2

[15] = tested on: Barnyardgrass; experiment: Pre-emergent herbicidal activity (Table II); conditions: 2-3 weeks; further: ranges in brackets are in %
Procedure, shortened: (§3)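 Percent injury, converted to a fixed-scale rating, is recorded roughly 2-3 weeks after seeding and treatment. The active ingredient is blended into the cover-layer soil laid over seeded pans, which then sit in a greenhouse with bottom watering as needed.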

[16] = tested on: Smartweed; experiment: Pre-emergent herbicidal activity (Table II); conditions: 2-3 weeks; further: ranges in brackets are in %
Procedure, shortened: as §3

[17] = tested on: Velvetleaf; experiment: Pre-emergent herbicidal activity (Table II); conditions: 2-3 weeks; further: ranges in brackets are in %
Procedure, shortened: as §3

[18] = tested on: Canada Thistle; experiment: Pre-emergent herbicidal activity (Table II); conditions: 2-3 weeks; further: ranges in brackets are in %
Procedure, shortened: as §3

[19] = tested on: Morningglory; experiment: Pre-emergent herbicidal activity (Table II); conditions: 2-3 weeks; further: ranges in brackets are in %
Procedure, shortened: as §3

[20] = tested on: Quackgrass; experiment: Pre-emergent herbicidal activity (Table II); conditions: 2-3 weeks; further: ranges in brackets are in %
Procedure, shortened: as §3

[21] = tested on: Johnsongrass; experiment: Pre-emergent herbicidal activity (Table II); conditions: 2-3 weeks; further: ranges in brackets are in %
Procedure, shortened: as §3

[22] = tested on: Lambsquarters; experiment: Pre-emergent herbicidal activity (Table II); conditions: 2-3 weeks; further: ranges in brackets are in %
Procedure, shortened: as §3

[23] = tested on: Yellow Nutsedge; experiment: Pre-emergent herbicidal activity (Table II); conditions: 2-3 weeks; further: ranges in brackets are in %
Procedure, shortened: as §3

[24] = tested on: Downy Brome; experiment: Pre-emergent herbicidal activity (Table II); conditions: 2-3 weeks; further: ranges in brackets are in %
Procedure, shortened: as §3

[25] = tested on: Cocklebur; experiment: Pre-emergent herbicidal activity (Table II); conditions: 2-3 weeks; further: ranges in brackets are in %
Procedure, shortened: as §3

CC1=C(N(Cn2c(=O)sc3ccccc32)C(=O)CCl)C(C)CCC1 (stereo not drawn) [Example 1, N-(2,6-dimethyl-1-cyclohexen-1-yl)-N-[(2-oxo-3(2H)-benzothiazolyl)methyl]-2-chloroacetamide]
inhibition at 280 g/ha ([1]; 0.28 kg/ha): 100%
inhibition at 560 g/ha ([1]; 0.56 kg/ha): 100%
inhibition at 1120 g/ha ([1]; 1.12 kg/ha): 100%
inhibition at 2240 g/ha ([1]; 2.24 kg/ha): 100%
inhibition at 280 g/ha ([2]; 0.28 kg/ha): 100%
inhibition at 560 g/ha ([2]; 0.56 kg/ha): 100%
inhibition at 1120 g/ha ([2]; 1.12 kg/ha): 100%
inhibition at 2240 g/ha ([2]; 2.24 kg/ha): 100%
inhibition at 280 g/ha ([3]; 0.28 kg/ha): 100%
inhibition at 560 g/ha ([3]; 0.56 kg/ha): 100%
inhibition at 1120 g/ha ([3]; 1.12 kg/ha): 100%
inhibition at 2240 g/ha ([3]; 2.24 kg/ha): 100%
inhibition at 280 g/ha ([4]; 0.28 kg/ha): 0%
inhibition at 560 g/ha ([4]; 0.56 kg/ha): 5%
inhibition at 1120 g/ha ([4]; 1.12 kg/ha): 5%
inhibition at 2240 g/ha ([4]; 2.24 kg/ha): 5%
inhibition at 280 g/ha ([5]; 0.28 kg/ha): 80%
inhibition at 560 g/ha ([5]; 0.56 kg/ha): 90%
inhibition at 1120 g/ha ([5]; 1.12 kg/ha): 100%
inhibition at 2240 g/ha ([5]; 2.24 kg/ha): 100%
efficacy as a rice herbicide [6]: particularly efficacious as a rice herbicide
selective weed control ([6]; rates as low as 0.28 kg/ha): selectively controlled all weeds in the test, except Sagittaria trifolia
inhibition at 280 g/ha ([7]; Oryza sativa, 432 h, transplanted rice, 0.28 kg/ha, 18 days after treatment): 0%
inhibition at 560 g/ha ([7]; Oryza sativa, 432 h, transplanted rice, 0.56 kg/ha, 18 days after treatment): 0%
inhibition at 1120 g/ha ([7]; Oryza sativa, 432 h, transplanted rice, 1.12 kg/ha, 18 days after treatment): 0%
inhibition at 2240 g/ha ([7]; Oryza sativa, 432 h, transplanted rice, 2.24 kg/ha, 18 days after treatment): 10%
rice injury (rice safety) ([7]; at 2.24 kg/ha or more): ≤ 15%
Herbicidal rating ([8]; 0.0056 kg/ha): 0 (0-24)
Herbicidal rating ([8]; 0.0112 kg/ha): 0 (0-24)
Herbicidal rating ([8]; 0.056 kg/ha): 0 (0-24)
Herbicidal rating ([8]; 0.28 kg/ha): 0 (0-24)
Herbicidal rating ([8]; 1.12 kg/ha): 0 (0-24)
Herbicidal rating ([8]; 5.6 kg/ha): 0 (0-24)
Herbicidal rating ([9]; 0.0056 kg/ha): 0 (0-24)
Herbicidal rating ([9]; 0.0112 kg/ha): 0 (0-24)
Herbicidal rating ([9]; 0.056 kg/ha): 1 (25-49)
Herbicidal rating ([9]; 0.28 kg/ha): 1 (25-49)
Herbicidal rating ([9]; 1.12 kg/ha): 1 (25-49)
Herbicidal rating ([9]; 5.6 kg/ha): 1 (25-49)
Herbicidal rating ([10]; 0.0056 kg/ha): 0 (0-24)
Herbicidal rating ([10]; 0.0112 kg/ha): 0 (0-24)
Herbicidal rating ([10]; 0.056 kg/ha): 0 (0-24)
Herbicidal rating ([10]; 0.28 kg/ha): 0 (0-24)
Herbicidal rating ([10]; 1.12 kg/ha): 0 (0-24)
Herbicidal rating ([10]; 5.6 kg/ha): 0 (0-24)
Herbicidal rating ([11]; 0.0056 kg/ha): 1 (25-49)
Herbicidal rating ([11]; 0.0112 kg/ha): 1 (25-49)
Herbicidal rating ([11]; 0.056 kg/ha): 1 (25-49)
Herbicidal rating ([11]; 0.28 kg/ha): 2 (50-74)
Herbicidal rating ([11]; 1.12 kg/ha): 2 (50-74)
Herbicidal rating ([11]; 5.6 kg/ha): 1 (25-49)
Herbicidal rating ([12]; 0.0056 kg/ha): 3 (75-100)
Herbicidal rating ([12]; 0.0112 kg/ha): 3 (75-100)
Herbicidal rating ([12]; 0.056 kg/ha): 3 (75-100)
Herbicidal rating ([12]; 0.28 kg/ha): 3 (75-100)
Herbicidal rating ([12]; 1.12 kg/ha): 3 (75-100)
Herbicidal rating ([12]; 5.6 kg/ha): 2 (50-74)
Herbicidal rating ([13]; 0.0056 kg/ha): 0 (0-24)
Herbicidal rating ([13]; 0.0112 kg/ha): 1 (25-49)
Herbicidal rating ([13]; 0.056 kg/ha): 0 (0-24)
Herbicidal rating ([13]; 0.28 kg/ha): 0 (0-24)
Herbicidal rating ([13]; 1.12 kg/ha): 3 (75-100)
Herbicidal rating ([13]; 5.6 kg/ha): 0 (0-24)
Herbicidal rating ([14]; 0.0112 kg/ha): 0 (0-24)
Herbicidal rating ([14]; 0.056 kg/ha): 0 (0-24)
Herbicidal rating ([15]; 5.6 kg/ha): 3 (75-100)
Herbicidal rating ([15]; 11.0 kg/ha): 3 (75-100)
Herbicidal rating ([16]; 5.6 kg/ha): 1 (25-49)
Herbicidal rating ([16]; 11.0 kg/ha): 3 (75-100)
Herbicidal rating ([17]; 5.6 kg/ha): 0 (0-24)
Herbicidal rating ([17]; 11.0 kg/ha): 0 (0-24)
Herbicidal rating ([18]; 5.6 kg/ha): 0 (0-24)
Herbicidal rating ([18]; 11.0 kg/ha): 0 (0-24)
Herbicidal rating ([19]; 5.6 kg/ha): 2 (50-74)
Herbicidal rating ([19]; 11.0 kg/ha): 2 (50-74)
Herbicidal rating ([20]; 5.6 kg/ha): 2 (50-74)
Herbicidal rating ([20]; 11.0 kg/ha): 2 (50-74)
Herbicidal rating ([21]; 5.6 kg/ha): 0 (0-24)
Herbicidal rating ([21]; 11.0 kg/ha): 3 (75-100)
Herbicidal rating ([22]; 5.6 kg/ha): 1 (25-49)
Herbicidal rating ([22]; 11.0 kg/ha): 0 (0-24)
Herbicidal rating ([23]; 5.6 kg/ha): 0 (0-24)
Herbicidal rating ([23]; 11.0 kg/ha): 2 (50-74)
Herbicidal rating ([24]; 5.6 kg/ha): 2 (50-74)
Herbicidal rating ([24]; 11.0 kg/ha): 2 (50-74)
Herbicidal rating ([25]; 5.6 kg/ha): 1 (25-49)
Herbicidal rating ([25]; 11.0 kg/ha): 0 (0-24)
